From patent US11878975B2, “Substituted indole compounds useful as TLR inhibitors” (BRISTOL-MYERS SQUIBB COMPANY, priority 2017, dated 2024) come the findings set out here.

Molecules are shown by their SMILES.

Common to all, as to format: cell-based
For one assay, the target named is T1, human TLR9 (Homo sapiens, UniProt Q9NR96).
T1 construct: host or cells: HEK-Blue cells
T1 sequence (Q9NR96 26-1032): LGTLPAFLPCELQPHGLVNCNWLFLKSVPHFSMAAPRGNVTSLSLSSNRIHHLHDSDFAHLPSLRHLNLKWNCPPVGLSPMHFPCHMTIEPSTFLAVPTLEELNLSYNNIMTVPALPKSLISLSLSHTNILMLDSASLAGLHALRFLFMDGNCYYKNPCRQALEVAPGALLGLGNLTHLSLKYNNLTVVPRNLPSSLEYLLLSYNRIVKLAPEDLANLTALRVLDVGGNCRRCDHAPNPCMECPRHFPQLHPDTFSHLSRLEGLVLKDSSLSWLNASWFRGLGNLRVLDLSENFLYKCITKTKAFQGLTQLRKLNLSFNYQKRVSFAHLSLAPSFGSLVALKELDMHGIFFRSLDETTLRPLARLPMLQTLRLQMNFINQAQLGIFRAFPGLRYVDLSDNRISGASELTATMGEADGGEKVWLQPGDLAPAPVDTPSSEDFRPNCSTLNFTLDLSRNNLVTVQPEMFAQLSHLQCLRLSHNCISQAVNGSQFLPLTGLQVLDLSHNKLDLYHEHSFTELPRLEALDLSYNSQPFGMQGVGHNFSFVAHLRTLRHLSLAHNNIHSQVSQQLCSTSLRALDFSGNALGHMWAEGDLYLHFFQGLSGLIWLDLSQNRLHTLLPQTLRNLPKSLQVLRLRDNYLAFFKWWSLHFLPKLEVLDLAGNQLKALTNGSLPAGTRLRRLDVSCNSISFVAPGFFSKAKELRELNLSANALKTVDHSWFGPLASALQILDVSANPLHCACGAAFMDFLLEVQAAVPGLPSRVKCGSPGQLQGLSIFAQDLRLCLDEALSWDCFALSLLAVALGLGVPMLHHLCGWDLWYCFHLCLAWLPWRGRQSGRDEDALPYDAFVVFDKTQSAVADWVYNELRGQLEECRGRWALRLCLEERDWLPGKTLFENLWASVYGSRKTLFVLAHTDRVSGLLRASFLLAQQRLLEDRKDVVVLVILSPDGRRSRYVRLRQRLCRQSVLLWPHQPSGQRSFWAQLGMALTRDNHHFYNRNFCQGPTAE
In words: TLR9 inhibition reporter assay (HEK-Blue cells, SEAP reporter, ODN2006 stimulation). The following applies: HEK-Blue cells overexpressing human TLR9, SEAP reporter, ODN2006 5 nM. The protocol: (§1) TLR7/8/9 Inhibition Reporter Assays
(§2) HEK-Blue™-cells (Invivogen) overexpressing human TLR7, TLR8 or TLR9 receptors were used for screening inhibitors of these receptors using an inducible SEAP (secreted embryonic alkaline phosphatase) reporter gene under the control of the IFN-β minimal promoter fused to five NF-κB and AP-1-binding sites. Briefly, cells are seeded into Greiner 384 well plates (15000 cells per well for TLR7, 20,000 for TLR8 and 25,000 for TLR9) and then treated with test compounds in DMSO to yield a final dose response concentration range of 0.05 nM-50 μM. After a 30 minute compound pre-treatment al room temperature, the cells are then stimulated with a TLR7 ligand (gardiquimod at a final concentration of 7.5 μM), TLR8 ligand (R848 at a final concentration of 15.9 μM) or TLR9 ligand (ODN2006 at a final concentration of 5 nM) to activate NF-κB and AP-1 which induce the production of SEAP. After a 22 hour incubation at 37° C., 5% CO2, SEAP levels are determined with the addition of HEK-Blue™ Detection reagent (Invivogen), a cell culture medium that allows for detection of SEAP, according to manufacturer's specifications. The percent inhibition is determined as the % reduction in the HEK-Blue signal present in wells treated with agonist plus DMSO alone compared to wells treated with a known inhibitor.
(In general: A reporter such as luciferase makes a cellular process visible.)

The next assay concerns the target T2, human TLR7 (Homo sapiens, UniProt Q9NYK1).
T2 construct: host or cells: HEK-Blue cells
T2 sequence (Q9NYK1 27-1049): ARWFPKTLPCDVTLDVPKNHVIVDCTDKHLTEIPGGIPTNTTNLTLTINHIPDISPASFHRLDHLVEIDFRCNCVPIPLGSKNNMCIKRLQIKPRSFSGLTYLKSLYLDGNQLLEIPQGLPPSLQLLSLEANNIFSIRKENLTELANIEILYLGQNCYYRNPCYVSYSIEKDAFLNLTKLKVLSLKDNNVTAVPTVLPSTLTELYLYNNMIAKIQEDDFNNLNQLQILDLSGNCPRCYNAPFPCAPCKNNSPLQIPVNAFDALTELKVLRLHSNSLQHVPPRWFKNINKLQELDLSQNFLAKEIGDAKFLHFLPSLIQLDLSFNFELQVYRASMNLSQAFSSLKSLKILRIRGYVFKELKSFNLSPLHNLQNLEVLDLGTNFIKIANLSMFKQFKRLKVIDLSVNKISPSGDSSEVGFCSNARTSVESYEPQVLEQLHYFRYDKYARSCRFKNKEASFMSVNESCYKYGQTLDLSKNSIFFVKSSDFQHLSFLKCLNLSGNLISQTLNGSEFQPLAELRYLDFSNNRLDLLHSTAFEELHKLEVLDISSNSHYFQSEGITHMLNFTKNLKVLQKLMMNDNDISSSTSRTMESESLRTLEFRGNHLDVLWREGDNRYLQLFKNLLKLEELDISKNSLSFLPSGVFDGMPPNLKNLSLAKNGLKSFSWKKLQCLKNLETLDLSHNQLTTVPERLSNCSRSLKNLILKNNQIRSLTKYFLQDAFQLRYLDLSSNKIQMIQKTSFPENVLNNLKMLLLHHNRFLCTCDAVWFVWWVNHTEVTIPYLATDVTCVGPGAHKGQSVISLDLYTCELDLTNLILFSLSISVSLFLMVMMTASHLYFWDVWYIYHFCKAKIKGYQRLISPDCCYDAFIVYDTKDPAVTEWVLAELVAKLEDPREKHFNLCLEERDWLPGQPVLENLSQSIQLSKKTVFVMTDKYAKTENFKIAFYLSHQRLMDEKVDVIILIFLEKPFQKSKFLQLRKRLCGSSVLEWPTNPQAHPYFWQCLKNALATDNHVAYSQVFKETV
Kind of assay: TLR7 inhibition reporter assay (HEK-Blue cells, SEAP reporter, gardiquimod stimulation). The settings on record: HEK-Blue cells overexpressing human TLR7, SEAP reporter, gardiquimod 7.5 μM. The protocol: as §1, §2

Another assay deals with T3, human TLR8 (Homo sapiens, UniProt Q9NR97).
T3 construct: host or cells: HEK-Blue cells
T3 sequence (Q9NR97 27-1041): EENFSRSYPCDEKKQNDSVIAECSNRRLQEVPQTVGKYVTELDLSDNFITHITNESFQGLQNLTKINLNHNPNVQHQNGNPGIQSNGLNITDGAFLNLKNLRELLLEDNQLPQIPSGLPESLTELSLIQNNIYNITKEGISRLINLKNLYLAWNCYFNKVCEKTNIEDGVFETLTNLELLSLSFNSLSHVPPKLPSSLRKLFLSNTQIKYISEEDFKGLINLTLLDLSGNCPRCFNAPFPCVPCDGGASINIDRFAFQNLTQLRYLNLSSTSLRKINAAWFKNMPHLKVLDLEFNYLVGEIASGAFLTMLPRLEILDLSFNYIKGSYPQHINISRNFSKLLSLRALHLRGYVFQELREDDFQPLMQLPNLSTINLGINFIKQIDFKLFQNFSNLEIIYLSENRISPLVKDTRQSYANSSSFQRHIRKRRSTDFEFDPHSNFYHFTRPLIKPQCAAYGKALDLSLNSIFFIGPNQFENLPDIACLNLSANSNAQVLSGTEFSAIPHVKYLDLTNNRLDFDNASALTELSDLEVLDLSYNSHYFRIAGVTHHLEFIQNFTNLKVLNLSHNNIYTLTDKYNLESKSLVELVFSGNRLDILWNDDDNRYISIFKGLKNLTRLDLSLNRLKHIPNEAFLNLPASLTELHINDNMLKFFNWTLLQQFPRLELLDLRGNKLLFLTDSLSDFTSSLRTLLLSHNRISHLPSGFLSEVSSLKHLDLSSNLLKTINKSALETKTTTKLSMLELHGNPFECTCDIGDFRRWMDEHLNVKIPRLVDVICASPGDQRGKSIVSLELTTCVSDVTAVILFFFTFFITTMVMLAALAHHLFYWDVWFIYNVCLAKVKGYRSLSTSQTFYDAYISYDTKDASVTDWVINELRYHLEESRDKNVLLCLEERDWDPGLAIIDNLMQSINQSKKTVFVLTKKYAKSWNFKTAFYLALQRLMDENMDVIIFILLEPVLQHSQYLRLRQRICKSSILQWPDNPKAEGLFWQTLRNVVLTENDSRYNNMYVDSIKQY
In words: TLR8 inhibition reporter assay (HEK-Blue cells, SEAP reporter, R848 stimulation). The following applies: HEK-Blue cells overexpressing human TLR8, SEAP reporter, R848 15.9 μM. The protocol:
as §1, §2

For `CCN(C)CC(=O)NC1CCC(c2ccc3[nH]c(-c4cc(OC)c5ncnn5c4)c(C(C)C)c3c2)CC1` (stereo not drawn) [Example 132, 2-(ethyl(methyl)amino)-N-(4-(3-isopropyl-2-(8-methoxy-[1,2,4]triazole [1,5-a]pyridin-6-yl)-1H-indol-5-yl)cyclohexyl)acetamide], the 50% inhibitory concentration (IC50) was 6040 nM on human TLR9, 0.44 nM against human TLR7 and 1.5 nM against human TLR8.

As for `CNC1CCC(c2ccc3[nH]c(-c4cc(C)c5ncnn5c4)c(C(C)C)c3c2)CC1` (single isomer, unassigned) [Example 56], the half-inhibitory concentration (IC50) on human TLR9 is 1370 nM; at human TLR7, 0.17 nM; against human TLR8 it was 0.81 nM.

With `CNCC(=O)N1CCOC(c2ccc3[nH]c(-c4cc(OC)c5ncnn5c4)c(C(C)C)c3c2)C1` (stereo not drawn) [Example 342], the results for the 50% inhibitory concentration (IC50) at human TLR9, against human TLR7 and against human TLR8 were 1720 nM, 3 nM and 16 nM, respectively.

As for `CNC(=O)CN1CC(c2ccc3[nH]c(-c4cc(C)c5ncnn5c4)c(C(C)C)c3c2)C1` [Example 260, 2-(3-(3-isopropyl-2-(8-methyl-[1,2,4]triazolo[1,5-a]pyridin-6-yl)-1H-indol-5-yl)azetidin-1-yl)-N-methylacetamide], the figures for the IC50 on human TLR9, at human TLR7 and at human TLR8 were 5250 nM, 2 nM and 3.9 nM, respectively.

As to `Cc1cc(-c2[nH]c3ccc(C4CCCN(C5CCN(C(C)C)CC5)C4)cc3c2C(C)C)cc(C)n1` (stereo not drawn) [Example 245], the IC50 on human TLR9 was 419 nM; against human TLR7 it was 104 nM; against human TLR8, 19 nM.

In the case of `CCc1c(-c2ccc(OC)c(OC)c2)[nH]c2ccc(CN3CCNCC3)cc12` [Example 390, 2-(3,4-dimethoxyphenyl)-3-ethyl-5-(piperazin-1-ylmethyl)-1H-indole], the IC50 was determined as 5880 nM against human TLR9, 138 nM against human TLR7 and 73 nM on human TLR8.

In the case of `Cc1c(-c2[nH]c3ccc(C4CCC(N5CC6(COC6)C5)CC4)cc3c2C(C)C)cn2ncnc2c1C` (stereo not drawn) [Example 95], the figures for the IC50 against human TLR9, at human TLR7 and at human TLR8 were 1820 nM, 2 nM and 3.6 nM, respectively.

Take `Cc1c(-c2[nH]c3ccc(C4CN(Cc5ncn(C)n5)C4)cc3c2C(C)C)cn2cnnc2c1C` [Example 537]: the results for the half-inhibitory concentration (IC50) against human TLR9, against human TLR7 and against human TLR8 were 27800 nM, 51 nM and 40 nM, respectively.

For `COc1cc(-c2[nH]c3ccc(C4CCC(N(C)C(C)C)CC4)cc3c2C(C)C)cn2ncnc12` (single isomer, unassigned) [Example 7, N-isopropyl-4-(3-isopropyl-2-(8-methoxy-[1,2,4]triazolo[1,5-a]pyridin-6-yl)-1H-indol-5-yl)-N-methylcyclohexanamine], the IC50 on human TLR9 worked out at 2000 nM; against human TLR7, 1 nM; on human TLR8, 4.4 nM.

`CNCCN1CCCC(c2ccc3[nH]c(-c4ccc(OC)c(OC)c4)c(C(C)C)c3c2)C1` (stereo not drawn) [Example 254, 2-(3-(2-(3,4-dimethoxyphenyl)-3-isopropyl-1H-indol-5-yl)piperidin-1-yl)-N-methylethanamine]: the 50% inhibitory concentration (IC50) at human TLR9 turned out to be 742 nM; against human TLR7, 107 nM; against human TLR8, 16 nM.

Consider `COc1ccc(-c2[nH]c3ccc(C4CCC5CC(C4)N5)cc3c2C(C)C)cc1OC` (stereo not drawn) [Example 279, 3-(2-(3.4-dimethoxyphenyl)-3-isopropyl-1H-indol-5-yl)-7-azabicyclo[4.1.1]octane], for which the concentration for half-maximal inhibition (IC50) on human TLR9 is 3130 nM; at human TLR7, 37 nM; at human TLR8, 73 nM.

Turning to `CNCC(=O)NC1CCC(c2ccc3[nH]c(-c4cc(C)nc(C)c4)c(C(C)C)c3c2)CC1` (single isomer, unassigned) [Example 130], the IC50 came out at 236 nM at human TLR9, 5 nM against human TLR7 and 33 nM against human TLR8.

On to `COc1cc(-c2[nH]c3ccc(C4CCC(N5CCOCC5)CC4)cc3c2C(C)C)cn2ncnc12` (stereo not drawn) [Example 69], for which the IC50 at human TLR9 is 1670 nM; at human TLR7 it was 0.22 nM; on human TLR8 it was 0.59 nM.

With `Cc1cc(-c2[nH]c3ccc(C4CCC(C(=O)N5CCCCC5)CC4)cc3c2C(C)C)cn2ncnc12` (single isomer, unassigned) [Example 160], the concentration for half-maximal inhibition (IC50) at human TLR9 is 30300 nM; on human TLR7, 9 nM; at human TLR8, 154 nM.

Regarding `Cc1c(-c2[nH]c3ccc(C4CN(C(=O)CN(C)C)C4)cc3c2C(C)C)cn2ncnc2c1C` [Example 564], the results for the IC50 on human TLR9, at human TLR7 and against human TLR8 were 7310 nM, 3 nM and 7 nM, respectively.

For orientation: IC50 means the concentration that gives 50% inhibition.
